pIC50: −log10 of the molar value. Where a name gives a salt, the structure may show the parent alone.
Biological target: T1, recombinant human 15-PGDH (Homo sapiens, UniProt P15428)
T1 construct: purchased R&D Systems
T1 sequence (P15428 1-266): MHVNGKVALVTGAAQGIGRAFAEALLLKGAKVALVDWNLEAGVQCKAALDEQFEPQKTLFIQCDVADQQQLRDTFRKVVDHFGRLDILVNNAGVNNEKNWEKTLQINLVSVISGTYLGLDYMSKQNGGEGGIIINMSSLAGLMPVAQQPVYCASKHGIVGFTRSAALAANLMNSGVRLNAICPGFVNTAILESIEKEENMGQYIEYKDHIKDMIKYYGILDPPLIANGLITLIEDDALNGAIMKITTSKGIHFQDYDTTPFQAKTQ
Assay: 15-PGDH enzyme inhibition test
Assay type: biochemical
Settings: 4 nM recombinant human 15-PGDH, 30 μM PGE2, 1 mM NAD+, 60 minutes after starting the reaction; read-out: IC50 Value
Summary of the method: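 4 nM recombinant human enzyme pre-incubated with compound 12 min at room temperature in 50 mM Tris-HCl pH 8.0 with 0.01% Tween 20 and 0.01% bovine gamma globulin. Reaction started with 30 μM PGE2 and 1 mM NAD+, read after 60 min by fluorescence (ex 340/em 440 nm). IC50 from concentration-response curve.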

pIC50 | SMILES
> 8.00 | O=C(c1cnc2c(c1)CCCN2c1cnc2c(=O)[nH]ncc2c1)N1CCCCC1 [Example 1-195]
7.00 to 8.00 | Cn1nc2cc(N3CCOc4cc(C(=O)N5C[C@H](O)C[C@H](O)C5)cnc43)ccn2c1=O [Example 8-108]
> 8.00 | Cn1cnc2cc(N3CCOc4cc(C(=O)N5CCC(F)(F)CC5)ccc43)ccc2c1=O [Example 1-153]
> 8.00 | Cn1nc2cc(N3CCCc4cc(C(=O)N5CCC[C@@H](C(F)F)C5)cnc43)ccn2c1=O [Example 8-142]
> 8.00 | O=C(O)c1ccc(N2CCOc3cc(C(=O)N4CCCCC4)cnc32)cc1Cl [Example 4-17]
> 8.00 | CN(C)CCn1nc2cc(N3CCOc4cc(C(=O)N5CCCCC5)cnc43)ccn2c1=O [Example 1-33]
7.00 to 8.00 | Cn1nc2cc(N3CCOc4cc(C(=O)N5CCCC6(CCO6)C5)cnc43)ccn2c1=O (stereo not shown) [Example 8-51]
> 8.00 | COCn1nc2cc(N3CCOc4cc(C(=O)N5CCCCC5)cnc43)ccn2c1=O [Example 1-22]
> 8.00 | CCN1Cc2cc(N3CCCc4cc(C(=O)N5CCCC(C)(F)C5)cnc43)ccc2C1=O (stereo not shown) [Example 8-81]
> 8.00 | CCn1nc2cc(N3CCCc4cc(C(=O)N5CCC(C)CC5)cnc43)ccn2c1=O [Example 8-161]
> 8.00 | CN(C)C(=O)c1ccc(N2CCOc3cc(C(=O)N4CCCCC4)cnc32)cc1 [Example 6-19]
> 8.00 | Cn1nc2cc(N3CCOc4cc(C(=O)N5C[C@H]6C[C@@H](C5)C6)cnc43)ccn2c1=O [Example 8-40]
> 8.00 | Cn1nc2cc(N3CCCOc4cc(C(=O)N5CCCC5)cnc43)ccn2c1=O [Example 8-58]
7.00 to 8.00 | CC(O)CCNC(=O)c1cnc2c(c1)OCCN2c1ccn2c(=O)n(C)nc2c1 (stereo not shown) [Example 8-180]
> 8.00 | CN1CCN(c2ccn3c(=O)n(C)nc3c2)c2ncc(C(=O)N3CCC(F)(F)CC3)cc21 [Example 29-4]
> 8.00 | CCn1oc2cc(N3CCOc4cc(C(=O)N5CCCCC5)cnc43)ccc2c1=O [Example 8-213]
7.00 to 8.00 | Cc1cn2ccc(N3CCOc4cc(C(=O)N5CCCCC5)cnc43)cc2n1 [Example 1-26]
> 8.00 | CN1Cc2cc(N3CCOc4cc(C(=O)N5CCC[C@H](CF)C5)cnc43)ccc2C1=O [Example 8-204]
> 8.00 | O=C(O)c1ccc(N2CCOc3cc(C(=O)N4CCC[C@@H](F)C4)cnc32)cc1 [Example 4-7]
> 8.00 | Cn1nc2cc(N3CCOc4cc(C(=O)N5CCC(F)(F)CC5)ccc43)ccn2c1=O [Example 1-147]
> 8.00 | Cn1nc2cc(N3CCOc4cc(C(=O)N5CCC(C(F)(F)F)CC5)cnc43)ccn2c1=O [Example 8-101]
> 8.00 | COCn1nc2cc(N3CCCc4cc(C(=O)N5CCC[C@H](C(F)F)C5)cnc43)ccn2c1=O [Example 8-118]
> 8.00 | COC(=O)c1ccc(N2CCCc3cc(C(=O)N4CCCCC4)cnc32)cc1 [Example 1-205]
> 8.00 | Cn1ccc2cc(N3CCCc4cc(C(=O)N5CCC(F)(F)CC5)cnc43)ccc2c1=O [Example 1-182]
> 8.00 | CN1Cc2cc(N3CCOc4cc(C(=O)N5CCOCC5)cnc43)ccc2C1=O [Example 8-188]
> 8.00 | COc1ccc(CN2Cc3cc(N4CCOc5cc(C(=O)N6CCC(F)(F)CC6)ccc54)ccc3C2=O)c(OC)c1 [Example 1-150]
> 8.00 | O=C(c1cnc2c(c1)CCCN2c1ccc2c(=O)[nH]cnc2c1)N1CCC(F)(F)CC1 [Example 8-96]
7.00 to 8.00 | Cn1nc2cc(N3CCCCOc4cc(C(=O)N5CCCCC5)cnc43)ccn2c1=O [Example 1-98]

pIC50 | SMILES
7.00 to 8.00 | O=C(c1cnc2c(c1)CCCN2c1cc2c(cn1)C(=O)N(CC1COC1)C2)N1CCC(F)(F)CC1 [Example 1-186]
> 8.00 | O=C(c1cnc2c(c1)OCCN2c1cccc(F)c1)N1CCCCC1 [Example 1-237]
< 7.00 | CN1C(=O)C(C)(C)c2cc(N3CCOc4cc(C(=O)N5CCCCC5)cnc43)ccc21 [Example 1-249]
7.00 to 8.00 | O=C(c1cnc2c(c1)OCCN2c1ccc(C(F)(F)F)cc1)N1CCCCC1 [Example 1-242]
< 7.00 | CCC(O)CNC(=O)c1cnc2c(c1)OCCN2c1ccn2c(=O)n(C)nc2c1 (stereo not shown) [Example 8-178]
7.00 to 8.00 | O=C(O)c1ccc(N2CCS(=O)(=O)c3cc(C(=O)N4CCCCC4)ccc32)cc1 [Example 2-17]
> 8.00 | Cn1nc2cc(N3CC(C)(C)Oc4cc(C(=O)N5CCCCC5)cnc43)ccn2c1=O [Example 1-93]
> 8.00 | C[C@@H]1CCCCN1C(=O)c1cnc2c(c1)CCCN2c1ccn2c(=O)n(C)nc2c1 [Example 8-132]
> 8.00 | COc1cc(N2CCOc3cc(C(=O)N4CCC(F)(F)CC4)ccc32)ccc1C(=O)O [Example 2-13]
> 8.00 | O=C(c1cnc2c(c1)OCCN2c1ccc2c(=O)[nH]ncc2c1)N1CCCCC1 [Example 14-8]
> 8.00 | O=C(c1cnc2c(c1)CCCN2c1ccc2c(c1)CN(C1COC1)C2=O)N1CCCCC1 [Example 1-66]
> 8.00 | Cn1nc2cc(N3CCOc4nc(C(=O)N5CCCCC5)ccc43)ccn2c1=O [Example 8-53]
> 8.00 | O=C(c1cnc2c(c1)OCCN2c1ccc2c(=O)[nH]oc2c1)N1CCCCC1 [Example 14-1]
< 7.00 | CNC1CCCN(C(=O)c2cnc3c(c2)OCCN3c2ccn3c(=O)n(C)nc3c2)C1 (stereo not shown) [Example 32-1, 2-Methyl-7-(7-(3-(methylamino)piperidine-1-carbonyl)-2,3-dihydro-4H-pyrido[3,2-b][1,4]oxazin-4-yl)-[1,2,4]triazolo[4,3-a]pyridin-3(2H)-one Trifluoroacetate]
> 8.00 | Cn1nc2cc(N3CCOc4cc(C(=O)N5CCCC(C(F)(F)F)C5)cnc43)ccn2c1=O (stereo not shown) [Example 8-109]
7.00 to 8.00 | CS(=O)(=O)c1ccc(N2CCOc3cc(C(=O)N4CCCCC4)cnc32)cc1Cl [Example 1-254]
> 8.00 | Cn1ccc2cc(N3CCOc4cc(C(=O)N5CCC(F)(F)CC5)cnc43)ccc2c1=O [Example 1-267]
7.00 to 8.00 | Cc1cc(C(=O)O)ccc1N1CCOc2cc(C(=O)N3CCCCC3)cnc21 [Example 4-18]
> 8.00 | COCCn1nc2cc(N3CCCc4cc(C(=O)N5CCC[C@@H](CF)C5)cnc43)ccn2c1=O [Example 1-123]
> 8.00 | C[C@@H]1C[C@H](C)CN(C(=O)c2cnc3c(c2)OCCN3c2ccn3c(=O)n(C)nc3c2)C1 [Example 8-41]
> 8.00 | Cn1nc2cc(N3CCCc4cc(C(=O)N5CCC[C@H](C(F)F)C5)cnc43)ccn2c1=O [Example 8-143]
> 8.00 | CCCN1Cc2cc(N3CCOc4cc(C(=O)N5CCCCC5)cnc43)ccc2C1=O [Example 1-222]
> 8.00 | Cn1cnc2cc(N3CCOc4cc(C(=O)N5CCC(F)(F)CC5)cnc43)ccc2c1=O [Example 1-226]
7.00 to 8.00 | COc1ccc(N2CCCc3cc(C(=O)N4CCCCC4)cnc32)cc1 [Example 1-200]
> 8.00 | CNC(=O)c1ccc(N2CCOc3cc(C(=O)N4CC=CCC4)ccc32)cc1OC [Example 5-3]
> 8.00 | COCCOCCn1nc2cc(N3CCCc4cc(C(=O)N5CCC(F)(F)CC5)cnc43)ccn2c1=O [Example 1-80]
< 7.00 | CC(=O)NC(C)(C)c1ccc(N2CCOc3cc(C(=O)N4CCCCC4)cnc32)cc1 [Example 31-1]
